Laboratory results taken from publication PMC6656724 (Communications Biology, 2019).
Where “and” joins values, the source holds several entries; their conditions need not be identical. Identical values can stand only once.

How the values were obtained:
[1] = tested on: KMO activity in the striatum; assay: De novo 3-HK synthesis after intrastriatal [5-3H]-kynurenine; type: in vivo, Sprague–Dawley rats
[2] = biological target: T1, Homo sapiens KMO (HsKMO) (Homo sapiens, UniProt O15229); assay: KMO inhibition assay, NADPH oxidation at 340 nm (HsKMO); type: biochemical
T1 construct: GST; made in house
Description: (§1) A combination of ligand- and structural-based virtual screening approaches (see supporting information for details) was used to identify an initial library of >1000 compounds that may be suitable as potential KMO inhibitors. These compounds were screened for inhibition of Pseudomonas fluorescens KMO (PfKMO) and Homo sapiens KMO (HsKMO) using high-throughput assays by monitoring the time-dependent oxidation of NADPH at 340 nm[23].
(§2) Small-molecule compounds were supplied by Biofocus (Charles River Laboratories International Inc., MA, USA), which were identified in silico as potential inhibitors (further details are described in the Supplementary Methods). Initial inhibition assays were performed against Pseudomonas fluorescens KMO (PfKMO) and Homo sapiens KMO (HsKMO) by monitoring the time-dependent absorbance change of NADPH at 340 nm. Purified KMO protein (200 nM) was incubated in 100 µL reaction buffer (20 mM potassium phosphate pH 8.0, 7 mM 2-mercaptoethanol) containing 100 μM NADPH, 100 μM L-Kyn and 20 μM potential inhibitors in 96-well plates. […] The inhibitors identified in the initial screens were validated and re-assayed individually in a 1 cm path-length quartz micro cuvette. […] Suppliers for target inhibitor compounds are listed in Supplementary Table 11.
Supplementary Figure 1. Examples of inhibition data used to generate IC50 values for selected KMO inhibitors.
(§3) NADPH (100µM) were added into reaction buffer (HsKMO: 20mM potassium phosphate pH 8.0, 7 mM 2-mercaptoethanol; PfKMO: 20 mM HEPES, 10mM sodium acetate, pH 7.5, 2mM DTT). The reaction was initiated by the addition of KMO enzyme (HsKMO: 0.5µM; PfKMO: 0.1 µM). KMO activity was measured in the presence of a range of inhibitor concentrations. […]
(§4) 3.5 Steady-state enzymatic assays.
(§5) Initial screening assays and determination of IC50 values for each potential inhibitor compound were carried out using either 0.1 µM PfKMO or 0.5 µM HsKMO at fixed […]
(§6) (HsKMO: 20 mM potassium phosphate pH 8.0, 7 mM 2-mercaptoethanol; PfKMO:
(§7) 20 mM HEPES, 10 mM sodium acetate, pH 7.5, 2 mM DTT). KMO activity was measured in the presence of a range of inhibitor concentrations by monitoring the […]
(§8) consumption of NADPH at 340 nm upon addition of enzyme via a Cary 50 UV-Vis spectrophotometer (Agilent Technologies). Rates were determined from linear regression fits to the initial linear portion of the curves. All measurements were performed in triplicate. The IC50 values for inhibitors were obtained by plotting the percentage inhibition versus the inhibitor concentration and fitting to the Morrison equation16 (equation 1) using Origin 9.0 Software (OriginLab, Northampton, MA).
E + I + K!"" − E + I + K!"" ! − 4[E][I] where v0 is the enzyme activity without inhibitor, vi is the enzyme activity with ligand

[3] = biological target: T2, Pseudomonas fluorescens KMO (PfKMO) (Pseudomonas fluorescens, UniProt Q84HF5, C252S/C461S); assay: biochemical
T2 construct: made in house; host or cells: E. coli BL21 (DE3)
Description: as §1, §2
as §3, with “Supplementary Figure 1. Examples of inhibition data used to generate IC50 values for selected KMO inhibitors. Fixed concentration of L -KYN (200 µM) and NADPH” for “NADPH”
as §4, §5, §6, §7
as §8, with “MA). […]” for “MA).”

[4] = biological target: T3, PfKMO (Pseudomonas fluorescens, UniProt Q84HF5, C252S/C461S); assay: Stopped-flow reduction of flavin cofactor by NADPH; type: biochemical
T3 construct: made in house; host or cells: E. coli BL21 (DE3)
Method: The reduction rate of the flavin cofactor by NADPH was measured using a stopped-flow spectrophotometer (Applied Photophysics Ltd), which was housed in an anaerobic glovebox (Belle Technology). […] The reduction of the flavin was monitored by the decrease in the absorbance of the flavin at 450 nm and transients were fitted to either double or triple exponentials.
Supplementary Figure 13. Reduction of flavin cofactor by NADPH in the presence and absence of ligands. Anaerobic mixtures of 10 µM PfKMO with or without ligand were mixed against anaerobic 2 mM NADPH on a stopped-flow spectrophotometer at 25℃. a, 10 µM PfKMO mixed with 2 mM NADPH; b, 10 µM

[5] = biological target: T3, PfKMO; assay: biochemical
Method: saturating concentrations of the L-KYN and NADPH substrates. Data are plotted […]
as §8
E + I + K!"" − E + I + K!"" ! − 4[E][I] where v0 is the enzyme activity without inhibitor, vi is the enzyme activity with ligand concentration [I], [E] is the enzyme concentration, [I] is the inhibitor concentration, K!"" is the apparent inhibition constant and IC = K!"" + [!] . If K!"" ≫ [!], IC ≈ […]
where Ki is the inhibition constant, [S] is the substrate concentration used in the assay and Km is the Michaelis-Menten constant17. […]
between Ki and Ki apparent values, as the conditions for measuring IC50 are different, Ki values can be used to compare with other reported KMO inhibitors.
Steady-state kinetic parameters for PfKMO were calculated by measuring initial rates […]
the observed rate of turnover (v) versus the varied substrate concentration were fitted to equation 2 using Origin 9.0 Software (OriginLab, Northampton, MA).
A B + K!! B + K!! A + K!!K!! where v is the initial rate of activity, Vmax is the maximum velocitie of the reaction, [A] and [B] are the substrate concentration, K!! and K!! are the Michaelis-Menten constant for different substrate and K!! is the inhibition (binding) constant of substrate A to the free enzyme while forming transitory complexes.18
Product inhibition studies were carried out by measuring reaction rates at varying […]
one substrate and varying concentrations of the other substrate. Inhibition studies with target compounds were carried out by measuring reaction rates at varying inhibitor concentrations at saturating concentrations of one substrate and varying concentrations of the other substrate. […]
were used to distinguish between different types of inhibition. The data were fitted to a straight line defined by the Lineweaver-Burke equation (equation 4), with the y intercept providing 1/Vmax and the x intercept giving -1/Km. […]

T3 sequence (Q84HF5 whole entry C252S/C461S): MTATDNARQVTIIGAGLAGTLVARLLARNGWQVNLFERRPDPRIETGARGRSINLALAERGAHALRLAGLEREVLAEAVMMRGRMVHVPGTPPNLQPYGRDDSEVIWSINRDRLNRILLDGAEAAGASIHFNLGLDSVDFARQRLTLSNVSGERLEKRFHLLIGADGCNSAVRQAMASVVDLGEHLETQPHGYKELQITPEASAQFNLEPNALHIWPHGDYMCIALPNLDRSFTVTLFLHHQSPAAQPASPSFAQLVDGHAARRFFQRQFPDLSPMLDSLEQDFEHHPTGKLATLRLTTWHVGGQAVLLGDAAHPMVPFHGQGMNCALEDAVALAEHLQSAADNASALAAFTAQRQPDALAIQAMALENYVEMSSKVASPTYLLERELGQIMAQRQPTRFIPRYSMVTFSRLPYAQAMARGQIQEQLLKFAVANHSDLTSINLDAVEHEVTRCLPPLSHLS
T2 sequence (Q84HF5 whole entry C252S/C461S): as above
T1 sequence (O15229 whole entry): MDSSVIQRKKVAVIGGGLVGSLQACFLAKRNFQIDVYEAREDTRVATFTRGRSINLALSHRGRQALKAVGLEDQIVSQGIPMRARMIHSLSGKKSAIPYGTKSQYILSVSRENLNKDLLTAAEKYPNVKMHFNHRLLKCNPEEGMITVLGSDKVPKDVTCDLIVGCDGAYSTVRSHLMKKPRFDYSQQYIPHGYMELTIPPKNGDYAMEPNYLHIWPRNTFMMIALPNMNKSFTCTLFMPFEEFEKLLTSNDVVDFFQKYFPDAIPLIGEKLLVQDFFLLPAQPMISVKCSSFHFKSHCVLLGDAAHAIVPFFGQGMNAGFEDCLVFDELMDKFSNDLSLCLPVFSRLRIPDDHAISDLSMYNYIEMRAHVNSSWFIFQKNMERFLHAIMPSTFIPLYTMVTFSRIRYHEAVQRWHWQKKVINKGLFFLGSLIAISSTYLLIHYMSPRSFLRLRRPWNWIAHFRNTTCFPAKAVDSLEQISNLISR

With `COc1ccc(S(=O)(=O)Nc2nc(-c3cccc([N+](=O)[O-])c3)cs2)cc1OC` [Ro 61-8048] the “Reduction of [3H]-3-HK” value ([1]; rat striatum, 50 mg/kg i.v., 1 h) was “no reduction” and the “Percentage of [5-3H]-KYN that is metabolized into [3H]-3-HK” value ([1]; striatum of awake rats, 1 h after 50 mg/kg i.v., single rats) was 2.76% and 5.1% and 4.48% and 5.65% and 2.31% and 2.1%.
`O=C(O)c1ccc(-c2ccc(Cl)c(Cl)c2)o1` [compound 13, 5-(3,4-dichlorophenyl) furan-2-carboxylic acid] was tested, and the IC50 [2] was 63100 nM, the IC50 [3] was 400 ± 20 nM and the “Reduction rate of flavin cofactor” value ([4]; PfKMO with saturating ligand, 2 mM NADPH, 25 °C, anaerobic) was 0.06 ± 0.002 s⁻¹. For the same compound, the “Stimulation of KMO reduction by NADPH” value ([4]; rapid mixing stopped-flow assays) was “do not stimulate”, the Ki [5] was 20 ± 1 nM and the “Mechanism of inhibition with respect to L-KYN” value ([5]; PfKMO) was “competitive inhibitor”. For the same compound, the “Mechanism of inhibition with respect to NADPH” value ([5]; PfKMO) was “mixed type inhibitors”.
